From US20210236476A1, “METHODS OF TREATING CANCER WITH SMALL MOLECULE PD-L1 INHIBITORS” (CHEMOCENTRYX, INC., priority 2018, published 2021)

Target: T1, human PD-L1 / human PD-1 interaction (Homo sapiens, UniProt Q9NZQ7)
T1 construct: purchased R&D (PD-L1); ACRO Biosystems (PD-1, biotin)
Test: ELISA of PD-1/PD-L1 interaction
Format: binding
In short: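 Plates coated with 1 μg/mL human PD-L1 and blocked with BSA; serially diluted (1:5) compounds plus biotinylated human PD-1 (0.3 μg/mL) incubated 1 h at 37° C. Bound PD-1 detected with streptavidin-HRP/TMB, absorbance at 450 nm.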

T1 sequence (Q9NZQ7 19-239 limits assumed): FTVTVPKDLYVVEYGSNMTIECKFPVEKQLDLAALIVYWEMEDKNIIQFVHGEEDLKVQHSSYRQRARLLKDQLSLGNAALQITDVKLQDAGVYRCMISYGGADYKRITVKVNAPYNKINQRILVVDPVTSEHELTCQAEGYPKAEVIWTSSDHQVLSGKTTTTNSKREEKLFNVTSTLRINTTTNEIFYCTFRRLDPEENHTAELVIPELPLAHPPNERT

`N#Cc1cncc(COc2cc(O[C@H]3CCc4c(-c5cccc(OCCCN6CC7(C6)CC(F)(F)C7)c5Cl)cccc43)c(Cl)cc2CN[C@@H]2CCC[C@@H]2O)c1` and `N#Cc1cncc(COc2cc(O[C@H]3CCc4c(-c5cccc(OCCCN6CC7(CC(F)C7)C6)c5Cl)cccc43)c(Cl)cc2CN[C@@H]2CCC[C@H]2O)c1` cannot be ordered by IC50: < 5 nM for the first, < 5 nM for the second.

`N#Cc1cncc(COc2cc(O[C@H]3CCc4c(-c5cccc(OCCCN6CC7(CC(F)C7)C6)c5Cl)cccc43)c(Cl)cc2CN[C@H]2CC[C@@H]2O)c1` and `N#Cc1cncc(COc2cc(O[C@H]3CCc4c(-c5cccc(OCCCN6CCC(F)CC6)c5Cl)cccc43)c(Cl)cc2CN[C@@H]2CCC[C@@H]2O)c1` cannot be ordered by IC50: < 5 nM for the first, < 5 nM for the second.

First: Cc1c(OCCCN2CCC(C)CC2)cccc1-c1cccc2c1CC[C@@H]2Oc1cc(OCc2cc(C#N)cc(C#N)c2)c(CN[C@H]2CCC(=O)NC2)cc1Cl
Second: Cc1c(OCCCN2CC(C)(C)C2)cccc1-c1cccc2c1CC[C@@H]2Oc1cc(OCc2cc(C#N)cc(C#N)c2)c(CN[C@H]2CCC(=O)NC2)cc1Cl
The IC50 of the first is higher: 5 to 500 nM for the first, < 5 nM for the second. The second is the more potent here.

`Cc1c(OCCCN2CCC(O)CC2)cccc1-c1cccc2c1CC[C@@H]2Oc1cc(OCc2cncc(C#N)c2)c(CN[C@H](C(=O)NS(C)(=O)=O)[C@@H](C)O)cc1Cl` and `C[C@@H](O)[C@H](NCc1cc(Cl)c(O[C@H]2CCc3c(-c4cccc(OCCCN5CCC(O)CC5)c4Cl)cccc32)cc1OCc1cncc(C#N)c1)C(N)=O` cannot be ordered by IC50: < 5 nM for the first, < 5 nM for the second.

`C[C@@](CO)(NCc1cc(Cl)c(O[C@@H]2c3cccc(-c4cccc(OCCCN5CC(F)C5)c4Cl)c3C[C@@H]2F)cc1OCc1cncc(C#N)c1)C(=O)O` and `CC(CO)(NCc1cc(Cl)c(O[C@H]2CCc3c(-c4cccc(OCCCN5CC(F)C5)c4Cl)cccc32)cc1OCc1cncc(C#N)c1)C(=O)O` (stereo partly drawn) cannot be ordered by IC50: < 5 nM for the first, < 5 nM for the second.

`CCOc1cc(O[C@H]2CCc3c(-c4cccc(OCCCN5CC(O)C5)c4Cl)cccc32)c(Cl)cc1CN[C@@](C)(CO)C(=O)O` and `CCOc1cc(O[C@H]2CCc3c(-c4cccc(OCCCN5CC[C@@H](O)C5)c4C)cccc32)c(Cl)cc1CNC(C)(CO)C(=O)O` (stereo partly drawn) cannot be ordered by IC50: < 5 nM for the first, < 5 nM for the second.

`Cc1c(OCCCN2CC(O)C2)cccc1-c1cccc2c1CC[C@@H]2Oc1cc(OCc2cncc(C#N)c2)c(CN[C@H](C(=O)O)[C@@H](C)O)cc1Cl` and `C[C@@H](O)[C@H](NCc1cc(Cl)c(O[C@H]2CCc3c(-c4cccc(OCCCN5CC(O)C5)c4Cl)cccc32)cc1OCc1cncc(C#N)c1)C(=O)O` cannot be ordered by IC50: < 5 nM for the first, < 5 nM for the second.

`N#Cc1cncc(COc2cc(O[C@H]3CCc4c(-c5cccc(OCCCN6CC(O)C6)c5Cl)cccc43)c(Cl)cc2CN2CC3(CC(O)C3)C2)c1` and `Cc1c(OCCCN2CCC(O)CC2)cccc1-c1cccc2c1CC[C@@H]2Oc1cc(OCc2cncc(C#N)c2)c(CN2CC(C(=O)O)C2)cc1Cl` cannot be ordered by IC50: < 5 nM for the first, < 5 nM for the second.

`CN1CCC(COc2cccc(-c3cccc4c3CC[C@@H]4Oc3cc(OCc4cncc(C#N)c4)c(CNC[C@@H]4CCC(=O)N4)cc3Cl)c2Cl)C1` (stereo partly drawn) and `CCN1CCC(COc2cccc(-c3cccc4c3CC[C@@H]4Oc3cc(OCc4cncc(C#N)c4)c(CN[C@H]4CCC(=O)NC4)cc3Cl)c2Cl)C1` (stereo partly drawn) cannot be ordered by IC50: < 5 nM for the first, < 5 nM for the second.

`CCOc1cc(O[C@H]2CCc3c(-c4cccc(OCCCN5CCC[C@@H]5C(C)C)c4C)cccc32)c(Cl)cc1CNC[C@@H]1CCC(=O)N1` and `Cc1c(OCCCN2CCCCC2)cccc1-c1cccc2c1CC[C@@H]2Oc1cc(OCc2cc(C#N)cc(C#N)c2)c(CNC[C@H]2CCC(=O)N2)cc1Cl` cannot be ordered by IC50: < 5 nM for the first, < 5 nM for the second.

`CCOc1cc(O[C@H]2CCc3c(-c4cccc(OCCCN5CCC5(C)C)c4C)cccc32)c(Cl)cc1CN(C)CCCC(=O)O` and `Cc1c(OCCCN2CCCC2(C)C)cccc1-c1cccc2c1CC[C@@H]2Oc1cc(OCc2cc(C#N)cc(C#N)c2)c(CN[C@H]2CCC(=O)NC2)cc1Cl` cannot be ordered by IC50: < 5 nM for the first, < 5 nM for the second.

`CC(CO)(NCc1cc(Cl)c(O[C@H]2CCc3c(-c4cccc(OCCCN5CCOCC5)c4Cl)cccc32)cc1OCc1cncc(C#N)c1)C(=O)O` (stereo partly drawn) and `C[C@@](CO)(NCc1cc(Cl)c(O[C@H]2CCc3c(-c4cccc(OCCCN5CCC(O)CC5)c4Cl)cccc32)cc1OCc1cncc(C#N)c1)C(=O)O` cannot be ordered by IC50: < 5 nM for the first, < 5 nM for the second.

`N#Cc1cncc(COc2cc(O[C@H]3CCc4c(-c5cccc(OCCCN6CCNC(=O)C6)c5Cl)cccc43)c(Cl)cc2CNC2(C(=O)O)CCC2)c1` and `N#Cc1cncc(COc2cc(O[C@H]3CCc4c(-c5cccc(OCCCN6CCC(F)CC6)c5Cl)cccc43)c(Cl)cc2CN[C@@H]2CCC[C@H]2O)c1` cannot be ordered by IC50: < 5 nM for the first, < 5 nM for the second.

First: Cc1c(OCCCN2CC3(CC(F)C3)C2)cccc1-c1cccc2c1CC[C@@H]2Oc1cc(OCc2cc(C#N)cc(C#N)c2)c(CN[C@H]2CCC(=O)NC2)cc1Cl
Second: Cc1c(OCCCN2[C@H](C)CCC[C@@H]2C)cccc1-c1cccc2c1CC[C@@H]2Oc1cc(OCc2cc(C#N)cc(C#N)c2)c(CN[C@H]2CCC(=O)NC2)cc1Cl
The IC50 of the first is lower: < 5 nM for the first, 5 to 500 nM for the second.

`Cc1c(OCCCN2CCC(O)CC2)cccc1-c1cccc2c1CC[C@@H]2Oc1cc(OCc2cncc(C#N)c2)c(CNCc2cn(C)cn2)cc1Cl` and `N#Cc1cncc(COc2cc(O[C@H]3CCc4c(-c5cccc(OCCCN6CCC(F)CC6)c5Cl)cccc43)c(Cl)cc2CN[C@@H]2CCCC[C@@H]2O)c1` cannot be ordered by IC50: < 5 nM for the first, < 5 nM for the second.
